Where two headings read alike, the source gives them in different places.

One compound from patent US20170304388A1, “NEW INDICATION OF CARDIOVASCULAR DRUGS FOR PREPARATION OF CANCER INHIBITION PHARMACEUTICAL COMPOSITION” (LAUNX BIOMEDICAL CO., LTD., priority 2014, published 2017) can be followed below.

What all share (assay type): cell-based
Assay [1] has as its system A375 (Amelanotic Melanoma). Kind of assay: Cell viability analysis (WST-1), A375. The settings on record: Homo sapiens, A-375, 72 h. (In general: Tetrazolium dyes change colour on reduction, which living cells bring about.)
Assay [2] deals with TSGH-8301 (Urinary Bladder Carcinoma). Kind of assay: Cell viability analysis (WST-1), TSGH-8301. The settings on record: 72 h, Table 4, repeated experiments, drug 10 μM, WST-1, read-out: survival rate (viability) of cancer cells, TSGH-8301.
Another assay relates to MDA-MB231. Kind of assay: Cell viability analysis (WST-1), MDA-MB231. The settings on record: Homo sapiens, MDA-MB-231, 72 h, Table 4, repeated experiments, drug 10 μM, read-out: survival rate (viability) of cancer cells, MDA-MB231.
For the next assay, the system named is TOV-21G. Kind of assay: Cell viability analysis (WST-1), TOV-21G. The settings on record: Homo sapiens, TOV21G, 72 h, Table 4, repeated experiments, drug 10 μM, read-out: survival rate (viability) of cancer cells, TOV-21G. Put shortly:
(§1)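 Seeded at 3000 cells per well, then exposed to drug at 10 μM for 72 h. Viability measured by WST-1 reagent (1:10 in medium) for 30–90 min at 37° C, read as OD450, expressed as survival rate.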

For a further assay, the system named is U2OS. The assay is described as follows: Cell viability analysis (WST-1), U2OS. The settings on record: Homo sapiens, U2OS, 72 h, Table 4, repeated experiments, drug 10 μM, read-out: survival rate (viability) of cancer cells, U2OS. The procedure, abridged: as §1
For another assay, the system named is 786-O. The assay is described as follows: Cell viability analysis (WST-1), 786-O. The settings on record: Homo sapiens, 786-0, 72 h, Table 4, repeated experiments, drug 10 μM, read-out: survival rate (viability) of cancer cells, 786-O. The procedure, abridged:
as §1

For orientation: viability means a read-out of living cells in per cent, often relative to untreated cells. For the compound `CCC(C)(C)C(=O)O[C@H]1C[C@@H](C)C=C2C=C[C@H](C)[C@H](CC[C@@H]3C[C@@H](O)CC(=O)O3)[C@H]21` [Simvastatin (Zocor), Simvastatin], the viability at 10 µM in assay [1] (Table 3, drug 10 μM, WST-1, OD450 nm, lower viability = better inhibition, read-out: survival rate (viability) of cancer cells, A375) is 114%; in assay [1] (Table 4, repeated experiments, drug 10 μM, WST-1, read-out: survival rate (viability) of cancer cells, A375), 78.6%; in assay [2] it was 106%; in the assay with MDA-MB231 it was 71.1%; in the assay on TOV-21G, 63.6%; with U2OS, 65.6%. Moreover, the viability at 10 µM in the assay with 786-O turned out to be 87.8%.
